# Laboratory results from patent US20230234917A1, “ASPARAGINE DERIVATIVES AND METHODS OF USING SAME” (priority 2020, published 2023).
# How the values were obtained:
# ClbP [1] = target: T1, ClbP (Escherichia coli, UniProt Q0P7K6); assay: ClbP cell lysate activity (inhibition) assay, fluorogenic substrate; format: biochemical; details: ClbP Lysate Inhibition Assay: IC50, E. coli ClbP+ lysozyme-EDTA lysates, 5 μM fluorogenic substrate, inhibitor 0-300 μM, 37° C., singlicate
# Procedure, shortened: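 E. coli ClbP+ overnight culture lysed with lysozyme-EDTA (30 min, 37 °C); lysate (fivefold concentrated vs culture) mixed with inhibitor (0–300 μM, 4% DMSO) and 5 μM fluorogenic substrate. Fluorescence (ex 360/em 460 nm) read at 37 °C; 0–20 min rates normalized to no-inhibitor, three-parameter IC50 fit, singlicate.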
# Full-length WT ClbP = Full-length WT ClbP (Escherichia coli, UniProt Q0P7K6); assay: ClbP molecular (purified protein) enzymatic inhibition assay, fluorogenic substrate; format: biochemical, E. coli
# ClbP [2] = target: T1, ClbP; assay: ClbP whole cell activity (inhibition) assay, fluorogenic substrate; format: cell-based, E. coli
# Procedure, shortened: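 E. coli ClbP+ overnight culture washed and concentrated fivefold in PBS, mixed with inhibitor (0–300 μM, 4% DMSO) and 5 μM fluorogenic substrate at 37 °C. Fluorescence (ex 360/em 460 nm) read every 2 min for 46 min. Rates from 10–30 min normalized to no inhibitor and fit to a three-parameter IC50.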
Compound,IC50 (ClbP [1]) [µM],IC50 (Full-length WT ClbP) [µM],IC50 (ClbP [2]) [µM]
CCCCCCCC(=O)N[C@H](CC(N)=O)C(=O)NCCc1ccc(Cl)cc1 [Compound CXCIV],< 100,< 100,< 100
CCCCCCCC(=O)N[C@H](CC(N)=O)C(=O)NCCc1ccc(OC)cc1 [Compound CXCIX],< 100,< 100,< 100
CCCCCCCC(=O)N[C@H](CC(N)=O)[C@@H](O)CCCc1ccccc1 [Compound CXCI],100 to 300,100 to 300,< 100
CCCCCCCC(=O)N[C@H](CC(N)=O)C(=O)NCCc1ccc(C(=O)O)cc1 [Compound CXCVIII],100 to 300,< 100,< 100
CCCCCCCC(=O)N[C@H](CC(N)=O)C(=O)NCCc1ccc(C(=O)OC)cc1 [Compound CXCVII],< 100,< 100,< 100
CCCCCCCC(=O)N[C@H](CC(N)=O)C(=O)NCCc1ccc(C)cc1 [Compound CXCVI],< 100,< 100,< 100
CCCCCCCC(=O)N[C@H](CC(N)=O)C(=O)NCCc1ccc(C(F)(F)F)cc1 [Compound CXCV],> 300,100 to 300,> 300
CCCCCCCC(=O)N[C@H](CC(N)=O)C(=O)NCCN1CCN(C)CC1 [Compound CXC],> 300,100 to 300,> 300
CCCCCCCC(=O)N[C@H](CC(N)=O)C(=O)NCCc1ccccc1 [Compound III],< 100,< 100,< 100
CCCCCCCC(=O)N[C@@H](CNCCc1ccccc1)CC(N)=O [Compound IX],> 300,100 to 300,> 300
CCCCCCCC(=O)N[C@H](CC(N)=O)C(=O)O[C@@H](C)C(=O)OC [Compound LXXVI],< 100,100 to 300,< 100
CCCCCCCC(=O)N[C@](C)(CC(N)=O)C(=O)NCCc1ccccc1 [Compound LXX],> 300,100 to 300,> 300
CCCCCCCC(=O)N[C@@H](CNC(C)(C)C)CC(N)=O [Compound VIII],< 100,< 100,< 100
CCCCCCCC(=O)N[C@H](CC(N)=O)c1nnn(C(C)(C)C)n1 [Compound XIX],> 300,100 to 300,> 300
CCCCCCCC(=O)N[C@H](CC(N)=O)c1nnn(CCc2ccccc2)n1 [Compound XVIII],> 300,100 to 300,> 300
CCCCCCCC(=O)N[C@H](CC(N)=O)CN(C)CCc1ccccc1 [Compound XVI],< 100,< 100,> 300
CCCCCCCCCC(=O)N[C@@H]1CC(=O)NC1(O)C(=O)NCc1ccccc1 (stereo partly drawn) [Compound […]],100 to 300,< 100,100 to 300
